# Starred links: 1 amine or outer side, 2 acyl side, 3 side chain; linkers in the order of their positions; H or OH if unused. Positions of bridges follow the written chain, without caps; N, C: chain ends. Non-standard residues stand in square brackets, D forms with d. Residues, ends and D or L forms follow the SMILES beside them. *: point of attachment. Phe(3,4-Cl2) = N[C@@H](Cc1ccc(Cl)c(Cl)c1)C(=O)O; Dihydroorotyl(S) = O=C1C[C@@H](C(=O)*)NC(=O)N1; Phe(2-CF3) = N[C@@H](Cc1ccccc1C(F)(F)F)C(=O)O; X3 = O=C([C@H](CCNC1=NCCN1)N[*:1])[*:2]; Phe(3-Me) = Cc1cccc(C[C@H](N)C(=O)O)c1; Phe(4-F) = N[C@@H](Cc1ccc(F)cc1)C(=O)O; Phe(2-F) = N[C@@H](Cc1ccccc1F)C(=O)O; Bta = N[C@@H](Cc1csc2ccccc12)C(=O)O; Hydrocinnamoyl = O=C(CCc1ccccc1)*; Hyp = O=C(O)[C@@H]1C[C@@H](O)CN1; d(hLeu) = CC(C)CC[C@@H](N)C(=O)O; Tic = O=C(O)[C@@H]1Cc2ccccc2CN1; 2Thi = N[C@@H](Cc1cccs1)C(=O)O; dCha = N[C@H](CC1CCCCC1)C(=O)O; Butoxycarbonyl = CCCCOC(=O)*; Phg = N[C@H](C(=O)O)c1ccccc1; Nicotinoyl = O=C(c1cccnc1)*; Nle = CCCC[C@H](N)C(=O)O; Orn = NCCC[C@H](N)C(=O)O; Aze = O=C(O)[C@@H]1CCN1; X13 = c1ccc2c(c1)nnn2C*; NPrGly = CCCNCC(=O)O; X17 = c1cc(CC*)ccn1; X18 = c1cc(C*)ccn1; Ms = CS(=O)(=O)*; tBu = CC(C)(C)*
# Biological target: T1, human C5aR(CD88) (Homo sapiens, UniProt P21730)
# T1 construct: expressed in transfected cells; host or cells: rat basophilic leukemia cells (RBL)
# T1 sequence (P21730 1-350): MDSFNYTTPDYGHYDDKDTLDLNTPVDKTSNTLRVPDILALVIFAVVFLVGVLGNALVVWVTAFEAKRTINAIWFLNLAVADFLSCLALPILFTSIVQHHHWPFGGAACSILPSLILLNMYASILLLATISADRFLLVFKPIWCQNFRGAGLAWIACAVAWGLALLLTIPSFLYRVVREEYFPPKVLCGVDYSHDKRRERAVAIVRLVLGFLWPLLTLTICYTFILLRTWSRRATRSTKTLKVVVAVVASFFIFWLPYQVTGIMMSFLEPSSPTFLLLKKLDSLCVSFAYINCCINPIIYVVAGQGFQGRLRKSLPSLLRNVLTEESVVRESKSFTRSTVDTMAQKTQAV
# Assay: Determination of the IC50 value in an enzyme release assay (functional assay, antagonistic activity)
# Type: cell-based
# Conditions: activity (group)
row,Structure (SMILES),IC50
1,"CO[C@@H]1C[C@H]2C(=O)N[C@H](CCC(C)C)C(=O)N[C@@H](Cc3ccc(F)cc3)C(=O)N[C@@H](Cc3ccccc3)C(=O)NCCC[C@H](NC(=O)[C@@H](N)Cc3ccccc3)C(=O)N2C1 [Compound 355, H-Phe-[Orn-Hym-hle-Pff-Phe]] (H-F[Orn][Hyp](Me)[d(hLeu)][Phe(4-F)]F; lactam 2-C)",50 to 200 nM

# Same assay, conditions: antagonistic activity; IC50 group in enzyme release assay, RBL cells expressing human C5aR(CD88); read-out: activity (group)
row,Structure (SMILES),IC50
1,"CCCC[C@@H]1NC(=O)[C@H](Cc2csc3ccccc23)NC(=O)[C@@H](CCC(C)C)NC(=O)[C@@H]2CCCN2C(=O)[C@@H](NC(=O)[C@H](Cc2ccccc2)NC(C)=O)CCCNC1=O [Compound 196, Ac-Phe-[Orn-Pro-hle-Bta-Nle]] (Ac-F[Orn]P[d(hLeu)][Bta][Nle]; lactam 2-C)",50 to 200 nM
2,CC(=O)N[C@@H](Cc1ccccc1)C(=O)N[C@H]1CCCNC(=O)[C@H](CSCCc2ccncc2)NC(=O)[C@H](Cc2c[nH]c3ccccc23)NC(=O)[C@@H](CC2CCCCC2)NC(=O)[C@@H]2CCCN2C1=O [compound 19] (Ac-F[Orn]P[dCha]WC(X17); lactam 2-C),200 to 2000 nM
3,"CC(=O)N[C@@H](Cc1ccccc1)C(=O)N[C@@H](CCNC1=NCCN1)C(=O)N1CCC[C@H]1C(=O)N[C@H](CC1CCCCC1)C(=O)N[C@@H](Cc1csc2ccccc12)C(=O)N[C@@H](Cc1ccccc1)C(N)=O [Compound 220, Ac-Phe-Fcn-Pro-cha-Bta-Phe-NH2] (Ac-F[X3]P[dCha][Bta]F-NH2)",10 to 20 nM
4,"CCCC[C@@H]1NC(=O)[C@H](Cc2csc3ccccc23)NC(=O)[C@@H](CC2CCCCC2)NC(=O)[C@@H]2CCCN2C(=O)[C@@H](NCc2ccccc2)CCCNC1=O [Compound 315, Bzl-[Orn-Pro-cha-Bta-Nle]]",50 to 200 nM
5,"CC(=O)N[C@@H](Cc1ccccc1)C(=O)N[C@@H](CCCN)C(=O)N1CC[C@H]1C(=O)N[C@H](CC1CCCCC1)C(=O)N[C@@H](Cc1csc2ccccc12)C(=O)N[C@@H](Cc1ccccc1)C(N)=O [Compound 52, Ac-Phe-Orn-Aze-cha-Bta-Phe-NH2] (Ac-F[Orn][Aze][dCha][Bta]F-NH2)",10 to 20 nM
6,CC(=O)N[C@@H](Cc1ccccc1)C(=O)N[C@H]1CCCNC(=O)[C@H](CSCc2ccncc2)NC(=O)[C@H](Cc2c[nH]c3ccccc23)NC(=O)[C@@H](CC2CCCCC2)NC(=O)[C@@H]2CCCN2C1=O [compound 15] (Ac-F[Orn]P[dCha]WC(X18); lactam 2-C),200 to 2000 nM
7,"CCCC[C@@H]1NC(=O)[C@H](Cc2c[nH]c3ccccc23)NC(=O)[C@@H](CC2CCCCC2)NC(=O)[C@@H]2CCCN2C(=O)[C@@H](NC(=O)[C@H](Cc2ccccc2)NC(=O)c2cccnc2)CCCNC1=O [Compound 328, Fbn-Phe-[Orn-Pro-cha-Trp-Nle]] (Nicotinoyl-F[Orn]P[dCha]W[Nle]; lactam 2-C)",10 to 20 nM
8,"CC(=O)N[C@@H](Cc1cccs1)C(=O)N[C@@H](CCCN)C(=O)N1CCC[C@H]1C(=O)N[C@H](CC1CCCCC1)C(=O)N[C@@H](Cc1csc2ccccc12)C(=O)N[C@@H](Cc1cccs1)C(N)=O [Compound 313, Ac-Thi-Orn-Pro-cha-Bta-Thi-NH2] (Ac-[2Thi][Orn]P[dCha][Bta][2Thi]-NH2)",20 to 50 nM
9,"CCCC[C@@H]1NC(=O)[C@H](Cc2c[nH]c3ccccc23)NC(=O)[C@@H](CC2CCCCC2)NC(=O)[C@@H]2Cc3ccccc3CN2C(=O)[C@@H](NC(=O)[C@H](Cc2ccccc2)NC(C)=O)CCCNC1=O [Compound 205, Ac-Phe-[Orn-Tic-cha-Trp-Nle]] (Ac-F[Orn][Tic][dCha]W[Nle]; lactam 2-C)",50 to 200 nM
10,"CC(C)(C)SC[C@H]1NC(=O)[C@@H]2C[C@@H](O)CN2C(=O)[C@@H](NC(=O)[C@@H](N)Cc2ccccc2)CCCNC(=O)[C@H](Cc2ccccc2)NC(=O)[C@H](Cc2c[nH]c3ccccc23)NC1=O [Compound 360, H-Phe-[Orn-Hyp-ctb-Trp-Phe]] (H-F[Orn][Hyp][dC](tBu)WF; lactam 2-C)",20 to 50 nM
11,"CC(=O)N[C@@H](Cc1ccccc1)C(=O)N[C@@H](CCCN)C(=O)N1CCC[C@H]1C(=O)N[C@H](CCC(C)C)C(=O)N[C@@H](Cc1ccc(Cl)c(Cl)c1)C(=O)N[C@@H](Cc1ccccc1)C(N)=O [Compound 284, Ac-Phe-Orn-Pro-hle-Eaa-Phe-NH2] (Ac-F[Orn]P[d(hLeu)][Phe(3,4-Cl2)]F-NH2)",50 to 200 nM
12,"CC(C)CC[C@@H](NC(=O)[C@@H]1C[C@@H](O)CN1C(=O)[C@H](CCCN)NC(=O)[C@H](Cc1ccccc1)NC(=O)[C@@H]1CC(=O)NC(=O)N1)C(=O)N[C@@H](Cc1ccc(F)cc1)C(=O)N[C@@H](Cc1ccccc1)C(N)=O [Compound 349, Hoo-Phe-Orn-Hyp-hle-Pff-Phe-NH2] ({Dihydroorotyl(S)}-F[Orn][Hyp][d(hLeu)][Phe(4-F)]F-NH2)",50 to 200 nM
13,"CC(=O)N[C@@H](Cc1ccccc1)C(=O)N[C@@H](CCCN)C(=O)N1CCC[C@H]1C(=O)N[C@H](CC1CCCCC1)C(=O)N[C@@H](Cc1ccccc1C(F)(F)F)C(=O)N[C@@H](Cc1ccccc1)C(N)=O [Compound 262, Ac-Phe-Orn-Pro-cha-Otf-Phe-NH2] (Ac-F[Orn]P[dCha][Phe(2-CF3)]F-NH2)",50 to 200 nM
14,"CC(C)CC[C@H]1NC(=O)[C@H](CO)NC(=O)[C@@H](NC(=O)[C@@H](N)Cc2ccccc2)CCCNC(=O)[C@H](CC(C)C)NC(=O)[C@H](Cc2ccc(F)cc2)NC1=O [Compound 387, H-Phe-[Orn-Ser-hle-Pff-Leu]] (H-F[Orn]S[d(hLeu)][Phe(4-F)]L; lactam 2-C)",50 to 200 nM
15,"CC(=O)N[C@@H](Cc1ccccc1)C(=O)N[C@@H](CCCN)C(=O)N1CCC[C@H]1C(=O)N[C@H](CC1CCCCC1)C(=O)N[C@@H](Cc1c[nH]c2ccccc12)C(=O)N[C@H](C(N)=O)c1ccccc1 [Compound 111, Ac-Phe-Orn-Pro-cha-Trp-Phg-NH2] (Ac-F[Orn]P[dCha]W[Phg]-NH2)",200 to 2000 nM
16,"CC(=O)N[C@@H](Cc1ccccc1)C(=O)N[C@@H](CCCN)C(=O)N1CCC[C@H]1C(=O)N[C@H](CCC(C)C)C(=O)N[C@@H](Cc1ccccc1F)C(=O)N[C@@H](Cc1ccccc1)C(N)=O [Compound 295, Ac-Phe-Orn-Pro-hle-Off-Phe-NH2] (Ac-F[Orn]P[d(hLeu)][Phe(2-F)]F-NH2)",50 to 200 nM
17,"CC(=O)N[C@@H](Cc1ccccc1)C(=O)N[C@@H](CCCN)C(=O)N1CCC[C@H]1C(=O)N[C@H](CCC(C)C)C(=O)N[C@@H](Cc1csc2ccccc12)C(=O)N[C@@H](Cc1ccc(F)cc1)C(N)=O [Compound 279, Ac-Phe-Orn-Pro-hle-Bta-Pff-NH2] (Ac-F[Orn]P[d(hLeu)][Bta][Phe(4-F)]-NH2)",50 to 200 nM
18,"CC(=O)N[C@@H](Cc1ccccc1)C(=O)N[C@@H](CSCn1nnc2ccccc21)C(=O)N1CCC[C@H]1C(=O)N[C@H](CC1CCCCC1)C(=O)N[C@@H](Cc1csc2ccccc12)C(=O)N[C@@H](Cc1ccccc1)C(N)=O [Compound 119, Ac-Phe-Eec-Pro-cha-Bta-Phe-NH2] (Ac-FC(X13)P[dCha][Bta]F-NH2)",50 to 200 nM
19,"NCCC[C@H](NC(=O)[C@H](Cc1ccccc1)NC(=O)CN)C(=O)N1CCC[C@H]1C(=O)N[C@H](CC1CCCCC1)C(=O)N[C@@H](Cc1csc2ccccc12)C(=O)N[C@@H](Cc1ccccc1)C(N)=O [Compound 345, H-Gly-Phe-Orn-Pro-cha-Bta-Phe-NH2] (H-GF[Orn]P[dCha][Bta]F-NH2)",50 to 200 nM
20,"CCCN(CC(=O)N[C@H](CC1CCCCC1)C(=O)N[C@@H](Cc1csc2ccccc12)C(=O)N[C@@H](Cc1ccccc1)C(N)=O)C(=O)[C@H](CCCN)NC(=O)[C@H](Cc1ccccc1)NC(C)=O [Compound 237, Ac-Phe-Orn-G24-cha-Bta-Phe-NH2] (Ac-F[Orn][NPrGly][dCha][Bta]F-NH2)",50 to 200 nM
21,"CCCCOC(=O)N[C@@H](Cc1ccccc1)C(=O)N[C@@H](CCCN)C(=O)N1CCC[C@H]1C(=O)N[C@H](CC1CCCCC1)C(=O)N[C@@H](Cc1c[nH]c2ccccc12)C(=O)N[C@@H](Cc1ccccc1)C(N)=O [Compound 86, Bu-O—CO-Phe-Orn-Pro-cha-Trp-Phe-NH2] (Butoxycarbonyl-F[Orn]P[dCha]WF-NH2)",200 to 2000 nM
22,"CC(C)CC[C@@H](NC(=O)[C@@H]1CCCN1C(=O)[C@H](CCCN)NC(=O)[C@H](Cc1ccccc1)NC(=O)[C@@H]1CC(=O)NC(=O)N1)C(=O)N[C@@H](Cc1ccc(F)cc1)C(=O)N[C@@H](Cc1ccccc1)C(N)=O [Compound 352, Hoo-Phe-Orn-Pro-hle-Pff-Phe-NH2] ({Dihydroorotyl(S)}-F[Orn]P[d(hLeu)][Phe(4-F)]F-NH2)",20 to 50 nM
23,"CC(=O)N[C@@H](Cc1ccccc1)C(=O)N[C@@H](CCC(=O)O)C(=O)N1CCC[C@H]1C(=O)N[C@H](CC1CCCCC1)C(=O)N[C@@H](Cc1c[nH]c2ccccc12)C(=O)N[C@@H](Cc1ccccc1)C(N)=O [Compound 91, Ac-Phe-Glu-Pro-cha-Trp-Phe-NH2] (Ac-FEP[dCha]WF-NH2)",200 to 2000 nM
24,"CS(=O)(=O)N[C@@H](Cc1ccccc1)C(=O)N[C@@H](CCCN)C(=O)N1CC[C@H]1C(=O)N[C@H](CC1CCCCC1)C(=O)N[C@@H](Cc1csc2ccccc12)C(=O)N[C@@H](Cc1ccccc1)C(N)=O [Compound 96, CH3—SO2-Phe-Orn-Aze-cha-Bta-Phe-NH2] (Ms-F[Orn][Aze][dCha][Bta]F-NH2)",20 to 50 nM
25,"CCCC[C@@H]1NC(=O)[C@H](Cc2c[nH]c3ccccc23)NC(=O)[C@H](Cc2cccc(C)c2)NC(=O)[C@@H]2C[C@@H](O)CN2C(=O)[C@@H](NC(=O)[C@H](Cc2ccccc2)NC(C)=O)CCCNC1=O [Compound 182, Ac-Phe-[Orn-Hyp-Mmf-Trp-Nle]] (Ac-F[Orn][Hyp][Phe(3-Me)]W[Nle]; lactam 2-C)",50 to 200 nM
26,"CCCC[C@@H]1NC(=O)[C@H](Cc2c[nH]c3ccccc23)NC(=O)[C@@H](CC2CCCCC2)NC(=O)[C@@H]2C[C@@H](O)CN2C(=O)[C@@H](NC(=O)CCc2ccccc2)CCCNC1=O [Compound 145, 3PP-[Orn-Hyp-cha-Trp-Nle]] (Hydrocinnamoyl-[Orn][Hyp][dCha]W[Nle]; lactam 1-C)",20 to 50 nM
